# Patent US20250057743A1, “Oral Care Compositions Comprising Dicarboxylic Acid” (The Procter & Gamble Company, priority 2020, published 2025)
# Legend:
# Slurry pH of composition = format: physicochemical; conditions: Table 10, treatments of the enamel softening study (1:3 slurry of toothpaste to water)
# Source text: The pH of the oral care compositions as described herein can be from about 4 to about 7, from about 4 to about 6, from about 4.5 to about 6.5, or from about 4.5 to about 5.5. The pH of a mouthrinse solution can be determined as the pH of the neat solution. The pH of a dentifrice composition can be determined as a slurry pH, which is the pH of a mixture of the dentifrice composition and water, such as a 1:4, 1:3, or 1:2 mixture of the dentifrice composition and water.
# [1] = human, 1 %
# Method: The enamel softening method is used to determine the potential of oral care compositions to damage (or not to damage) dental enamel with repeated exposure.
# A core of sound human enamel with a diameter of 3-4 mm was extracted from whole human teeth. The cores were mounted in dental acrylic and the surfaces were ground using 600 grit paper. Increasingly fine lapping papers were then used to polish the surface to a 1 um polish. Samples were sonicated in deionized water for 30 min. Enamel specimens were then rinsed with deionized water and wiped to remove any residual polish. Each enamel specimen was inspected and samples with large cracks or uneven calcification were discarded. […]
# Also on the day before the experiment, the Vickers hardness of each enamel specimen was measured using a hardness indenter at three separate locations spread across the enamel surface. A 50g load was applied for 10 seconds, and the diagonal lengths of the resulting indents were measured using a 20× magnification objective. […]
# On the day following the cycling experiment, the post-cycling hardness was obtained for each specimen using a similar procedure to that described for the pre-cycling hardness measurements. The change in hardness was calculated for each specimen by subtracting the pre-cycling hardness from the post-cycling hardness measurement. […]
smiles,measurement,setting,value
"O=C(O)CC(O)(CC(=O)O)C(=O)O [1% Citric Acid, citric acid]",Slurry pH,Slurry pH of composition,2.19
same,Δ SMH (change in surface microhardness),[1],175.68
